Measurements published in the supplement of paper PMC10307832.

What was measured:
Assay in all cases: relative viability (nuclei count vs DMSO), 5 days (fraction); higher = more cells survive
LU99A = test system: LU99A
Outline: (§1)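 Dosing by pin tool came one day after lung cancer cell lines were seeded in 1536-well plates, using either one drug or a fixed anchor-drug dose plus five library-drug doses (not always all listed) in √10 steps. After 5 days, nuclei were counted on 4× images. Relative viability is treated-well nuclei count divided by vehicle-well nuclei count, and values are medians of duplicate plates.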

CAL-12T = test system: CAL-12T
Outline: as §1

HCC-366 = test system: HCC-366
Outline: as §1

ABC-1 = test system: ABC-1
Outline: as §1

NCI-H2405 = test system: NCI-H2405
Outline: as §1

HCC-78 = test system: HCC-78
Outline: as §1

EPLC-272H = test system: EPLC-272H
Outline: as §1

ChaGo-K-1 = test system: ChaGo-K-1
Outline: as §1

NCI-H1944 = test system: NCI-H1944
Outline: as §1

LC-2-ad = test system: LC-2-ad
Outline: as §1

PC-3 [JPC-3] = test system: PC-3 [JPC-3]
Outline: as §1

NCI-H2087 = test system: NCI-H2087
Outline: as §1

COc1cc(N2CCC(C(N)=O)CC2)ccc1Nc1nc(N)c(Cl)c(Nc2ccccc2S(=O)(=O)C(C)C)n1 [HG-5-88-01] + O=C(CCCCCCC(=O)Nc1ccccc1)NO [Vorinostat] (partner 1 µM)
relative viability (LU99A; first compound 0.04 µM): 0.442
relative viability (LU99A; first compound 0.1265 µM): 0.454
relative viability (LU99A; first compound 0.4 µM): 0.522
relative viability (LU99A; first compound 1.265 µM): 0.55
relative viability (LU99A; first compound 4 µM): 0.436
relative viability (CAL-12T; first compound 0.04 µM): 0.747
relative viability (CAL-12T; first compound 0.1265 µM): 0.89
relative viability (CAL-12T; first compound 0.4 µM): 0.623
relative viability (CAL-12T; first compound 1.265 µM): 0.811
relative viability (CAL-12T; first compound 4 µM): 0.49
relative viability (HCC-366; first compound 0.04 µM): 0.438
relative viability (HCC-366; first compound 0.1265 µM): 0.452
relative viability (HCC-366; first compound 0.4 µM): 0.339
relative viability (HCC-366; first compound 1.265 µM): 0.336
relative viability (HCC-366; first compound 4 µM): 0.283
relative viability (ABC-1; first compound 0.04 µM): 1.07
relative viability (ABC-1; first compound 0.1265 µM): 1.48
relative viability (ABC-1; first compound 0.4 µM): 1.04
relative viability (ABC-1; first compound 1.265 µM): 1.04
relative viability (ABC-1; first compound 4 µM): 0.715
relative viability (NCI-H2405; first compound 0.04 µM): 1.07
relative viability (NCI-H2405; first compound 0.1265 µM): 1.06
relative viability (NCI-H2405; first compound 0.4 µM): 0.895
relative viability (NCI-H2405; first compound 1.265 µM): 1.03
relative viability (NCI-H2405; first compound 4 µM): 1.02
relative viability (HCC-78; first compound 0.04 µM): 0.467
relative viability (HCC-78; first compound 0.1265 µM): 0.357
relative viability (HCC-78; first compound 0.4 µM): 0.356
relative viability (HCC-78; first compound 1.265 µM): 0.206
relative viability (HCC-78; first compound 4 µM): 0.217
relative viability (EPLC-272H; first compound 0.04 µM): 0.497
relative viability (EPLC-272H; first compound 0.1265 µM): 0.606
relative viability (EPLC-272H; first compound 0.4 µM): 0.6
relative viability (EPLC-272H; first compound 1.265 µM): 0.503
relative viability (EPLC-272H; first compound 4 µM): 0.116
relative viability (ChaGo-K-1; first compound 0.04 µM): 0.75
relative viability (ChaGo-K-1; first compound 0.1265 µM): 0.71
relative viability (ChaGo-K-1; first compound 0.4 µM): 0.737
relative viability (ChaGo-K-1; first compound 1.265 µM): 0.786
relative viability (ChaGo-K-1; first compound 4 µM): 0.589
relative viability (NCI-H1944; first compound 0.04 µM): 0.623
relative viability (NCI-H1944; first compound 0.1265 µM): 0.627
relative viability (NCI-H1944; first compound 0.4 µM): 0.645
relative viability (NCI-H1944; first compound 1.265 µM): 0.55
relative viability (NCI-H1944; first compound 4 µM): 0.568
relative viability (LC-2-ad; first compound 0.04 µM): 0.804
relative viability (LC-2-ad; first compound 0.1265 µM): 0.75
relative viability (LC-2-ad; first compound 0.4 µM): 0.745
relative viability (LC-2-ad; first compound 1.265 µM): 0.674
relative viability (LC-2-ad; first compound 4 µM): 0.579
relative viability (PC-3 [JPC-3]; first compound 0.04 µM): 0.879
relative viability (PC-3 [JPC-3]; first compound 0.1265 µM): 0.756
relative viability (PC-3 [JPC-3]; first compound 0.4 µM): 0.58
relative viability (PC-3 [JPC-3]; first compound 1.265 µM): 0.724
relative viability (PC-3 [JPC-3]; first compound 4 µM): 0.303
relative viability (NCI-H2087; first compound 0.04 µM): 0.74
relative viability (NCI-H2087; first compound 0.1265 µM): 0.692
relative viability (NCI-H2087; first compound 0.4 µM): 0.592
relative viability (NCI-H2087; first compound 1.265 µM): 0.928
relative viability (NCI-H2087; first compound 4 µM): 0.76
